Experimental data published in US8633168B2, “Inhibitors of S-adenosyl-L-methionine decarboxylase” (Genzyme Corporation, priority 2007, dated 2014).
Where two headings read alike, the source gives them in different places.

Tests used:
[1] = system: Trypanosoma brucei rhodesiense strain STIB 900; experiment: Drug sensitivity assay against T. b. rhodesiense (Alamar blue); format: cell-based
Description: Trypanosoma brucei rhodesiense strain STIB 900, a clone of a population isolated in 1982 from a patient in Tanzania which is known to be susceptible to all currently used drugs was used in these assays. The bloodstream form trypomastigotes of this strain were maintained in supplemented Modified Eagle's Medium according to standard protocols (Hirumi H, Hirumi K, 1989. “Continuous cultivation of Trypanosoma brucei blood stream forms in a medium containing a low concentration of serum protein without feeder cell layers”. J Parasitol 75: 985-9).
(§1) Drug sensitivity assays were performed in sterile 96-well microtiter plates, with or without serial drug dilutions. The compounds were tested at 7 concentrations (drug concentration ranging from 90 μg/ml to 0.123 μg/ml in 3-fold dilutions). The highest concentration for the test compounds was 90 μg/ml. Each drug is tested in duplicate. After 72 hours of incubation the plates were inspected microscopically to assure growth of the controls to determine the minimum inhibitory concentration (MIC), i.e., the lowest drug concentration at which no trypanosomes with normal morphology and motility can be seen compared to control wells. Cell viability is measured by Alamar blue staining and IC50 values were calculated.
The bloodstream form trypomastigotes of the three strains are maintained according to standard protocols established at STI.
as §1, with “are” for “were”, “The” for “The compounds were tested at 7 concentrations (drug concentration ranging from 90 μg/ml to 0.123 μg/ml in 3-fold dilutions). The”, “is” for “was”
The preliminary screen used T. b. rhodesiense. The compounds were tested at 7 concentrations (drug concentration ranging from 90 μg/ml to 0.123 μg/ml in 3-fold dilutions).

[2] = Solubility in phosphate buffer; format: physicochemical; details: for Sol.: Table 2, @ 7.4; for solubility at 16 hours: phosphate buffer
Procedure: A stock solution for each test compound was prepared at 25 mM in DMSO. These were diluted into phosphate buffer and equilibrated for 16 hours at room temperature, and then filtered to remove precipitated compound. The UV absorbance of this equilibrated sample was compared to a single point reference standard.

[3] = Microsomal stability, rat; format: in vitro ADME; details: for Microsomal stability (CL) rat: Table 2; for CLint scaled: Example 12 chart
Procedure: (§2) Liver microsomes and hepatocytes represent an in vitro surrogate for assessing the phase I/II metabolic stability of new discovery leads. Following the incubation of the compounds with microsomes or hepatocytes of different species (e.g., human, rat, dog, monkey, mouse), the samples were transferred to 96 well plates for quantitation using LC/MS/MS. The % of compound remaining was measured and used to calculate clearance and % hepatic blood flow.

[4] = Microsomal stability, human; format: in vitro ADME; details: for Microsomal stability (CL) human: Table 2; for CLint scaled: Example 12 chart
Procedure: as §2

[5] = Hepatocyte stability, human; format: in vitro ADME; details: for Hepatocyte stability (CL) human: Table 2; for CLint scaled: hepatocytes, Example 12 chart
Procedure: as §2

CYP3A4 = CYP3A4 (Homo sapiens, UniProt P08684); experiment: Cytochrome P450 inhibition, CYP3A4
Chain of CYP3A4 (P08684 whole entry): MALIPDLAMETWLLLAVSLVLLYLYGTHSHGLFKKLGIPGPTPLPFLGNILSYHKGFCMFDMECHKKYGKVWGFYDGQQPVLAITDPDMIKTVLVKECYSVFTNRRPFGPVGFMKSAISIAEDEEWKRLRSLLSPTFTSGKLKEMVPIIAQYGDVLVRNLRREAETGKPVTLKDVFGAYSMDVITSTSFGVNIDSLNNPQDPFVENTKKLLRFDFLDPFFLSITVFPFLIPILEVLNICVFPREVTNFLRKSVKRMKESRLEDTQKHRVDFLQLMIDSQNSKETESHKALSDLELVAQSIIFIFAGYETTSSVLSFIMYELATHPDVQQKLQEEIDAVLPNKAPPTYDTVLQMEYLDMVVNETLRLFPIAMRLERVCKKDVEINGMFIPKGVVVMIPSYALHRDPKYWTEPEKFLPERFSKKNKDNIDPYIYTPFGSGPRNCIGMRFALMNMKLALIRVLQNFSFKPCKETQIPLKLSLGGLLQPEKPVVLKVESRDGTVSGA
Description: (§3) This cytochrome P450 high throughput IC50 inhibition assay is utilized for screening potential inhibitors of the 5 major human CYP isozyme catalytic activities (CYP3A4, 2D6, 2C9, 2C19, and 1A2).

CYP2D6 = CYP2D6 (Homo sapiens, UniProt P10635); experiment: Cytochrome P450 inhibition, CYP2D6
Chain of CYP2D6 (P10635 whole entry): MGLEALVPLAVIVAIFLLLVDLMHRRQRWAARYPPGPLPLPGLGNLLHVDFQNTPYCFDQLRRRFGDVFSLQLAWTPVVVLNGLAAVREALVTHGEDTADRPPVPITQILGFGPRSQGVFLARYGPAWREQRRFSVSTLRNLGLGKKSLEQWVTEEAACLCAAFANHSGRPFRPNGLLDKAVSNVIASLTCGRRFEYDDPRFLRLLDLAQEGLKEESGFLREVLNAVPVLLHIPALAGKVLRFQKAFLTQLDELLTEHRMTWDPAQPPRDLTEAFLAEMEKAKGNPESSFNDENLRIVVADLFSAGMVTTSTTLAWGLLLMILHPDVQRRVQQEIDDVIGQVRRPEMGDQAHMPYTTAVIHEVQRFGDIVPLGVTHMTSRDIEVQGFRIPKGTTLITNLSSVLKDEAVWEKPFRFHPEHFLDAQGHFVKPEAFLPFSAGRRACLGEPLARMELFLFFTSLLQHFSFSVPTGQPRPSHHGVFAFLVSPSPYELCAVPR
Description: as §3

CYP2C19 = CYP2C19 (Homo sapiens, UniProt P33261); experiment: Cytochrome P450 inhibition, CYP2C19
Chain of CYP2C19 (P33261 whole entry): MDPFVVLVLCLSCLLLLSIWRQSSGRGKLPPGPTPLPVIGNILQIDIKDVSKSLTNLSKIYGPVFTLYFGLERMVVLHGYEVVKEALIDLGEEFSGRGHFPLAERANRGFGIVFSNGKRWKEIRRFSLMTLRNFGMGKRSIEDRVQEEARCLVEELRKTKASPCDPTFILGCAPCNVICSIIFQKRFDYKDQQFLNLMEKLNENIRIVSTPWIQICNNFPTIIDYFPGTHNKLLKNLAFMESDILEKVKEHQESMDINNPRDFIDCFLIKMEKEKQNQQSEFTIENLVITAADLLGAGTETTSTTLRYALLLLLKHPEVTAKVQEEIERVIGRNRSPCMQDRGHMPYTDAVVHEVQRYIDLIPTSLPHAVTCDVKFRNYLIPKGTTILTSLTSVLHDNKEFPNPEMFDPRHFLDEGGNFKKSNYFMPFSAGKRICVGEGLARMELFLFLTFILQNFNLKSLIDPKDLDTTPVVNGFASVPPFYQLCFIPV
Description: as §3

CYP1A2 = target: T1, CYP1A2 (Homo sapiens, UniProt P05177); experiment: Cytochrome P450 inhibition, CYP1A2
T1 sequence (P05177 1-516): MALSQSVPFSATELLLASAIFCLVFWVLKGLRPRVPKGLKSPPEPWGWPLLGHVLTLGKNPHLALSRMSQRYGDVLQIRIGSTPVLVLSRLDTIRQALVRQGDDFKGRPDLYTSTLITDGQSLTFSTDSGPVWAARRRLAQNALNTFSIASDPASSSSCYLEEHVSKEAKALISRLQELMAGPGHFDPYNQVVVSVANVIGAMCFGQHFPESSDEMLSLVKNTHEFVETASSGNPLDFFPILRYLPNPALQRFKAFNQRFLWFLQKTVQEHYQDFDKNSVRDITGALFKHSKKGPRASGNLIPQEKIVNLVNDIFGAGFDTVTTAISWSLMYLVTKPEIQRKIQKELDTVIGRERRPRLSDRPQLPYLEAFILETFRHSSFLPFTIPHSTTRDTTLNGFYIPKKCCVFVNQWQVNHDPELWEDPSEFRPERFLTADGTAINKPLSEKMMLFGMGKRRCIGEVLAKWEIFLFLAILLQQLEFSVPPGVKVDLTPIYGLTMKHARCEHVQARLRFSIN
Description: as §3

[6] = Plasma protein binding (RED), human; format: in vitro ADME
Procedure: (§4) Rapid Equilibrium Dialysis device (RED) is a 96-well formatted dialysis with disposable inserts and Teflon base design providing short incubation time. The membrane in RED physically separates of bound and free drug. After 4 hr incubation at 37° C., drug concentrations at both plasma (e.g., human, rat, dog, monkey, mouse) and pH 7.4 PBS buffer sides was quantitated by LC/MS/MS and % bound drug in plasma was calculated.

[7] = Plasma protein binding (RED), mouse; format: in vitro ADME
Procedure: as §4

Mouse brain exposure = format: in vivo; details: for AUC / Kp: Table 3; for AUC: mouse brain; for Kp: mouse, read-out: Mouse Brain exposure compared with blood AUC (%)
Procedure: This was determined by harvesting brains at selected time points, weighing and extracting total tissue homogenate for LC/MS/MS analysis. The amount of test compound associated with the brain was calculated by subtracting that amount attributable to blood vessels (7%, times the blood exposure levels).

T. cruzi = experiment: Cell-based screening against T. cruzi; details: Trypanosoma cruzi; Screening Data
L. donovani (axenic) = experiment: Screening against L. donovani (axenic); format: cell-based; details: Leishmania donovani; Screening Data
Schistosomes adult = experiment: Screening against Schistosomes, adult; format: cell-based; details: Screening Data
Schistosomes lavae = experiment: Screening against Schistosomes, larvae; format: cell-based; details: Screening Data
[8] = Screening Data, read-out: IC50 T. b. rhod.
[9] = Table 1, 72 hours incubation, Alamar blue, read-out: IC50 against T. b. rhodesiense (ug/mL) by STI
[10] = Table 2, read-out: IC50 against T. b. rhodesiense (ug/mL) by STI
[11] = Table 3, read-out: IC50 against T. brucei rhodesiense
[12] = aqueous buffer, kinetic from dmso stock, Example 12 chart, pH 7.4
[13] = human, probe fluorometric substrates (not named)
[14] = plasma, pH 7.4, Example 12 chart, human
[15] = plasma, pH 7.4, Example 12 chart, mouse
[16] = read-out: CYP IC50 3A4, Example 12 chart
[17] = read-out: CYP IC50 2D6, Example 12 chart
[18] = read-out: CYP IC50 2C19, Example 12 chart
[19] = read-out: CYP IC50 1A2, Example 12 chart

Compound | IC50 [1, 8] [µM] | IC50 [1, 9] [µg/mL] | IC50 [1, 10] [µg/mL] | Sol. [2] | solubility at 16 hours [2, 12] [µg/mL] | Microsomal stability (CL) rat [3] [mL/min/kg] | CLint scaled ([3]; liver microsomes) [mL/min/kg] | Microsomal stability (CL) human [4] [mL/min/kg] | CLint scaled ([4]; liver microsomes) [mL/min/kg] | Hepatocyte stability (CL) human [5] [mL/min/kg] | CLint scaled [5] [mL/min/kg] | IC50 (T. cruzi) [µM] | IC50 (L. donovani (axenic)) [µM] | IC50 (Schistosomes adult) [µM] | IC50 (Schistosomes lavae) [µM] | IC50 (CYP3A4) [µM] | IC50 (CYP2D6) [µM] | IC50 (CYP2D6; [17]) [µM] | IC50 (CYP2C19) [µM] | IC50 (CYP2C19; [18]) [µM] | further results
CN(C/C=C\CN)C[C@H]1O[C@@H](n2cnc3c(N)ncnc32)[C@H](F)[C@@H]1O (stereo in doubt) [Compound 1] | 1.39 | 0.489 | 0.489 | >47 (@ 7.4) ug/ml | > 47 | <11 | < 7.7 | <4.2 | < 4.5 | <4.2 | < 1.7 | > 85 | > 85 | > 10 | > 10 | – | – | – | – | – | IC50 [1, 11]: 0.489 µg/mL; IC50 (CYP3A4; [13]): > 5 µM; IC50 (CYP2D6; [13]): > 5 µM; IC50 (CYP2C19; [13]): > 5 µM; IC50 (CYP1A2; [13]): > 5 µM; Plasma Protein Binding % human ([6]; Table 2, human plasma): 23.3%; fraction unbound at 4 hr [6, 14]: 0.767; Plasma protein binding (%) mouse ([7]; Table 2, mouse plasma): 47.7%; fraction unbound at 4 hr [7, 15]: 0.523; AUC (Mouse brain exposure): 26 ng·h/mL; Kp (Mouse brain exposure; brain relative to blood): 0.0016; logD (LogD): -1.3
Cc1nc2c(N)ncnc2n1[C@@H]1O[C@H](CN(C)C/C=C\CN)[C@@H](O)[C@H]1O (stereo in doubt) [Compound 4] | 0.001 | 0.0004 | 0.0004 | >49 (@ 7.4) ug/ml | > 49 | <11 | < 7.7 | <4.2 | < 4.5 | <4.2 | < 1.7 | > 85 | > 85 | > 10 | > 10 | > 5 | > 5 | > 5 | > 5 | > 5 | IC50 [1, 11]: 0.0004 µg/mL; IC50 ([1]; read-out: IC50 against T. b. rhodesiense): 0.0004 µg/mL; IC50 (CYP3A4; [16]): > 5 µM; IC50 (CYP1A2): > 5 µM; IC50 (CYP1A2; [19]): > 5 µM; Plasma Protein Binding % human ([6]; Example 12 chart, human): 41.2%; protein binding relative to MDL73811 ([6]; compared with MDL73811 (human and mouse plasma in Table 2)): approximately half; fraction unbound at 4 hr ([6]; pH 7.4, Table 2, human plasma): 0.588; Plasma protein binding (%) mouse ([7]; Example 12 chart, mouse): 35.7%; fraction unbound at 4 hr ([7]; pH 7.4, Table 2, mouse plasma): 0.643; AUC (Mouse brain exposure): 1180 ng·h/mL; Kp (Mouse brain exposure; brain relative to blood): 0.066; percentage of brain blood barrier penetration (compared with MDL-73811) (Mouse brain exposure; text b82): higher percentage of brain blood barrier penetration; mouse brain exposure, fold greater than for MDL 73811 (Mouse brain exposure; vs MDL73811): ~4 fold; logD (LogD; Example 12 chart): −1.4
CN(C/C=C\CN)C[C@H]1O[C@@H](n2cnc3c(N)ncnc32)[C@@H](F)[C@@H]1O [Compound 2] | 2.59 | 0.908 | 0.908 | >47 (@ 7.4) ug/ml | > 47 | <11 | < 7.7 | <4.2 | < 4.5 | <4.2 | < 1.7 | > 85 | > 85 | > 10 | > 10 | > 5 | > 5 | > 5 | > 5 | > 5 | IC50 (CYP3A4; [16]): > 5 µM; IC50 (CYP1A2): > 5 µM; IC50 (CYP1A2; [19]): > 5 µM; Plasma Protein Binding % human ([6]; Table 2, human plasma): 32.2%; fraction unbound at 4 hr [6, 14]: 0.678; Plasma protein binding (%) mouse ([7]; Table 2, mouse plasma): 37.2%; fraction unbound at 4 hr [7, 15]: 0.628; logD (LogD): -1.2
CN(C/C=C\CN)C[C@H]1O[C@@H](n2cnc3c(N)nc(Cl)nc32)[C@H](O)[C@@H]1O [Compound 3] | 1.76 | 0.676 | 0.676 | >51 (@ 7.4) ug/ml | > 51 | <11 | < 7.7 | <4.2 | < 4.5 | <4.2 | < 1.7 | > 85 | > 85 | > 10 | > 10 | > 5 | > 5 | > 5 | > 5 | > 5 | IC50 (CYP3A4; [16]): > 5 µM; IC50 (CYP1A2): > 5 µM; IC50 (CYP1A2; [19]): > 5 µM; Plasma Protein Binding % human ([6]; Example 12 chart, human): 39%; fraction unbound at 4 hr ([6]; pH 7.4, Table 2, human plasma): 0.61; Plasma protein binding (%) mouse ([7]; Table 2, mouse plasma): 42.2%; fraction unbound at 4 hr [7, 15]: 0.578; AUC (Mouse brain exposure): 170 ng·h/mL; Kp (Mouse brain exposure; brain relative to blood): 0.0077
CN(C/C=C\CN)CC1OC(n2cnc3c(N)ncnc32)C(O)C1O (centres unmarked) [MDL-73811, reference compound] | 0.011 | 0.004 | 0.004 | >47 (@ 7.4) ug/ml | – | <11 | – | <4.2 | – | <4.2 | < 1.7 | 19.4 | > 85 | > 10 | > 10 | > 5 | > 5 | > 5 | > 5 | > 5 | IC50 [1, 11]: 0.004 µg/mL; solubility [2, 12]: > 47 µg/mL; CLint scaled ([3]; microsomes): < 7.7 mL/min/kg; CLint scaled ([4]; microsomes): < 4.5 mL/min/kg; IC50 (CYP3A4; human): > 5 µM; IC50 (CYP1A2): > 5 µM; IC50 (CYP1A2; [19]): > 5 µM; Plasma Protein Binding % human ([6]; Example 12 chart, human): 72.9%; fraction unbound ([6]; pH 7.4, Table 2, human plasma): 0.271; Plasma protein binding (%) mouse ([7]; Example 12 chart, mouse): 69.8%; fraction unbound ([7]; pH 7.4, Table 2, mouse plasma): 0.302; AUC (Mouse brain exposure; in vivo): 280 ng·h/mL; Kp (Mouse brain exposure; in vivo): 0.0134
